Measurements as given in ChEMBL document CHEMBL4229455, “Synthesis and anticancer activity of novel bisindolylhydroxymaleimide derivatives with potent GSK-3 kinase inhibition” (Bioorg Med Chem, 2018).
pIC50: −log10 of the molar value.

Assays:
K562 = test: Cytotoxicity against human K562 cells assessed as cell growth at 10 uM after 48 hrs by SRB assay relative to control; format: functional; conditions: K562, 48 h, read-out: Activity
UO-31 = test: Cytotoxicity against human UO31 cells assessed as cell growth at 10 uM after 48 hrs by SRB assay relative to control; format: functional; conditions: UO-31, 48 h, read-out: Activity
HCC 2998 = test: Cytotoxicity against human HCC2998 cells assessed as cell growth at 10 uM after 48 hrs by SRB assay relative to control; format: functional; conditions: HCC 2998, 48 h, read-out: Activity
M14 = test: Cytotoxicity against human M14 cells assessed as cell growth at 10 uM after 48 hrs by SRB assay relative to control; format: functional; conditions: M14, 48 h, read-out: Activity
[1] = biological target: Receptor-interacting serine/threonine-protein kinase 3 (Homo sapiens, UniProt Q9Y572); test: Inhibition of recombinant full length human RIPK3 expressed in baculovirus infected Sf9 insect cells using MBP as substrate in presence of [gamma-33P]ATP
Chain of Receptor-interacting serine/threonine-protein kinase 3 (Q9Y572 whole entry): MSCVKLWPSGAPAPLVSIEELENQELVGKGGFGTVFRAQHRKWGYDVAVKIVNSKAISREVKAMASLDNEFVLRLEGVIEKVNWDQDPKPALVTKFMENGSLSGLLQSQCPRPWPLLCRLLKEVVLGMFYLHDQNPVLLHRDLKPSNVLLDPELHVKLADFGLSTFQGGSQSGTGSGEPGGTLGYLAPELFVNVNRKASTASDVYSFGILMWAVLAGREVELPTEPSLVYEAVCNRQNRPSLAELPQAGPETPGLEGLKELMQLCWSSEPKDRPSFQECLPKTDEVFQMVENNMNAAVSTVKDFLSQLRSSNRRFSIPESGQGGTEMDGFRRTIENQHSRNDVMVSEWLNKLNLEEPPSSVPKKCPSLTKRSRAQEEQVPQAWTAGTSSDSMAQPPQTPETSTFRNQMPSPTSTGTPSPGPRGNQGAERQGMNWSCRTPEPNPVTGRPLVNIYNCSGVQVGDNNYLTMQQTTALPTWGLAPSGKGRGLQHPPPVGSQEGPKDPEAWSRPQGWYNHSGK

NCI/ADR-RES = test: Cytotoxicity against human NCI-ADR-RES cells assessed as cell growth at 10 uM after 48 hrs by SRB assay relative to control; format: functional; conditions: read-out: Activity
SNB-75 = test: Cytotoxicity against human SNB75 cells assessed as cell growth at 10 uM after 48 hrs by SRB assay relative to control; format: functional; conditions: SNB-75, 48 h, read-out: Activity
LOX IMVI = test: Cytotoxicity against human LOXIMVI cells assessed as cell growth at 10 uM after 48 hrs by SRB assay relative to control; format: functional; conditions: read-out: Activity
SF-268 = test: Cytotoxicity against human SF268 cells assessed as cell growth at 10 uM after 48 hrs by SRB assay relative to control; format: functional; conditions: SF-268, 48 h, read-out: Activity
[2] = biological target: CDK9/cyclin T1 (Homo sapiens) (UniProt O60563+P50750); test: Inhibition of recombinant full length human CDK9/cyclin T expressed in baculovirus infected Sf9 insect cells assessed as residual activity at 10 uM using YSPTSPSYSPTSPSYSPTSPSKKKK as substrate in presence of [gamma-33P]ATP
[3] = biological target: T1, Serine/threonine-protein kinase pim-1 (Homo sapiens, UniProt P11309); test: Inhibition of recombinant full length human PIM1 expressed in bacteria assessed as residual activity at 10 uM using histone H1 as substrate in presence of [gamma-33P]ATP
Target sequence in this assay (P11309 whole entry, looked up): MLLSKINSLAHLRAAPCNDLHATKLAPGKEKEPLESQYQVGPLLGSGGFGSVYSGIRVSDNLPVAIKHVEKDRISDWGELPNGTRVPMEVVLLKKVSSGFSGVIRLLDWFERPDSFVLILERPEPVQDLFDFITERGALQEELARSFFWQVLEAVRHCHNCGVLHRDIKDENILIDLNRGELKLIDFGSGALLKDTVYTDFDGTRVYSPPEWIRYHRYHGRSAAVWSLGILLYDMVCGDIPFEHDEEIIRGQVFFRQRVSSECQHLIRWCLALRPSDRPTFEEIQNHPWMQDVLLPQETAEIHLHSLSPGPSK

SK-MEL-28 = test: Cytotoxicity against human SK-MEL-28 cells assessed as cell growth at 10 uM after 48 hrs by SRB assay relative to control; format: functional; conditions: SK-MEL-28, 48 h, read-out: Activity
[4] = biological target: T1, Serine/threonine-protein kinase pim-1; test: Inhibition of recombinant full length human PIM1 expressed in bacteria using histone H1 as substrate in presence of [gamma-33P]ATP
Target sequence in this assay (P11309 whole entry): as the sequence (P11309 whole entry, looked up) above

SF-295 = test: Cytotoxicity against human SF295 cells assessed as cell growth at 10 uM after 48 hrs by SRB assay relative to control; format: functional; conditions: SF-295, 48 h, read-out: Activity
HT-29 = test: Cytotoxicity against human HT-29 cells assessed as cell growth at 10 uM after 48 hrs by SRB assay relative to control; format: functional; conditions: HT-29, 48 h, read-out: Activity
SF-539 = test: Cytotoxicity against human SF539 cells assessed as cell growth at 10 uM after 48 hrs by SRB assay relative to control; format: functional; conditions: SF-539, 48 h, read-out: Activity
[5] = Inhibition of domestic porcine brain full length […] using RRKHAAIGSpAYSITA as substrate in presence of [gamma-33P]ATP; parameters: species or system Sus scrofa domesticus
MDA-MB-231 = test: Cytotoxicity against human MDA-MB-231 cells assessed as cell growth at 10 uM after 48 hrs by SRB assay relative to control; format: functional; conditions: MDA-MB-231, 48 h, read-out: Activity
HCT-15 = test: Cytotoxicity against human HCT15 cells assessed as cell growth at 10 uM after 48 hrs by SRB assay relative to control; format: functional; conditions: HCT-15, 48 h, read-out: Activity
UACC-257 = test: Cytotoxicity against human UACC257 cells assessed as cell growth at 10 uM after 48 hrs by SRB assay relative to control; format: functional; conditions: UACC-257, 48 h, read-out: Activity
Sus scrofa domesticus = organism: Sus scrofa domesticus; test: Inhibition of domestic porcine brain full length […] assessed as residual activity at 10 uM using RRKHAAIGSpAYSITA as substrate in presence of [gamma-33P]ATP
KM12 = test: Cytotoxicity against human KM12 cells assessed as cell growth at 10 uM after 48 hrs by SRB assay relative to control; format: functional; conditions: KM12, 48 h, read-out: Activity
NCI-H23 = test: Cytotoxicity against human NCI-H23 cells assessed as cell growth at 10 uM after 48 hrs by SRB assay relative to control; format: functional; conditions: NCI-H23, 48 h, read-out: Activity
A498 = test: Cytotoxicity against human A498 cells assessed as cell growth at 10 uM after 48 hrs by SRB assay relative to control; format: functional; conditions: A498, 48 h, read-out: Activity
DU-145 = test: Cytotoxicity against human DU145 cells assessed as cell growth at 10 uM after 48 hrs by SRB assay relative to control; format: functional; conditions: DU-145, 48 h, read-out: Activity
SW-620 = test: Cytotoxicity against human SW620 cells assessed as cell growth at 10 uM after 48 hrs by SRB assay relative to control; format: functional; conditions: SW-620, 48 h, read-out: Activity
IGROV-1 = test: Cytotoxicity against human IGROV1 cells assessed as cell growth at 10 uM after 48 hrs by SRB assay relative to control; format: functional; conditions: IGROV-1, 48 h, read-out: Activity
HCT-116 = test: Cytotoxicity against human HCT116 cells assessed as cell growth at 10 uM after 48 hrs by SRB assay relative to control; format: functional; conditions: HCT-116, 48 h, read-out: Activity
[6] = biological target: Dual specificity tyrosine-phosphorylation-regulated kinase 1A (Rattus norvegicus, UniProt Q63470); test: Inhibition of recombinant rat DYRK1A kinase domain expressed in bacteria using KKISGRLSPIMTEQ as substrate in presence of [gamma-33P]ATP
Malme-3M = test: Cytotoxicity against human MALME-3M cells assessed as cell growth at 10 uM after 48 hrs by SRB assay relative to control; format: functional; conditions: read-out: Activity

SMILES	growth at 10 µM (K562)	growth at 10 µM (UO-31)	growth at 10 µM (HCC 2998)	growth at 10 µM (M14)	pIC50 [1]	growth at 10 µM (NCI/ADR-RES)	growth at 10 µM (SNB-75)	growth at 10 µM (LOX IMVI)	growth at 10 µM (SF-268)	Activity [2]	Activity [3]	growth at 10 µM (SK-MEL-28)	pIC50 [4]	growth at 10 µM (SF-295)	growth at 10 µM (HT-29)	growth at 10 µM (SF-539)	pIC50 [5]	growth at 10 µM (MDA-MB-231)	growth at 10 µM (HCT-15)	Activity (Sus scrofa domesticus)	further results
Cn1cc(C2=C(c3cn(CCCCCC#N)c4ccccc34)C(=O)N(O)C2=O)c2ccccc21	78.8%	50.8%	111%	100%	< 5.00	102%	68%	60.2%	94.9%	17%	52%	109%	< 5.00	107%	90.1%	98.4%	< 5.00	58.9%	91.2%	88%	growth at 10 µM (UACC-257): 110%; growth at 10 µM (KM12): 88.2%; growth at 10 µM (NCI-H23): 88.1%; growth at 10 µM (A498): 76.7%; growth at 10 µM (DU-145): 106%; growth at 10 µM (SW-620): 101%; growth at 10 µM (IGROV-1): 93.8%; growth at 10 µM (HCT-116): 85.1%; pIC50 [6]: 5.30
Cn1cc(C2=C(c3cn(CCCCCC(=O)O)c4ccccc34)C(=O)N(O)C2=O)c2ccccc21	103%	63.2%	110%	103%	< 5.00	100%	86.5%	80%	99.5%	15%	64%	106%	< 5.00	102%	105%	98.9%	< 5.00	84.7%	96.5%	80%	growth at 10 µM (UACC-257): 102%; growth at 10 µM (KM12): 99.3%; growth at 10 µM (NCI-H23): 95.2%; growth at 10 µM (A498): 91.9%; growth at 10 µM (DU-145): 109%; growth at 10 µM (SW-620): 98.9%; growth at 10 µM (IGROV-1): 103%; growth at 10 µM (HCT-116): 98.4%; pIC50 [6]: 6.00
O=C(O)CCCCCn1cc(C2=C(c3c[nH]c4ccccc34)C(=O)N(O)C2=O)c2ccccc21	94.8%	61%	119%	92.9%	< 5.00	106%	86%	80.4%	98.3%	19%	53%	111%	< 5.00	105%	101%	96.3%	< 5.00	92.6%	97.3%	83%	growth at 10 µM (UACC-257): 111%; growth at 10 µM (KM12): 95.6%; growth at 10 µM (NCI-H23): 97.6%; growth at 10 µM (A498): 88.5%; growth at 10 µM (DU-145): 104%; growth at 10 µM (SW-620): 95.3%; growth at 10 µM (IGROV-1): 93.4%; growth at 10 µM (HCT-116): 98.9%; pIC50 [6]: 5.70
CC(C)n1cc(C2=C(c3c[nH]c4ccccc34)C(=O)N(O)C2=O)c2ccccc21	86.3%	67.9%	105%	98.9%	< 5.00	102%	82.6%	58.8%	104%	44%	24%	116%	< 5.00	99.7%	99.2%	97.3%	< 5.00	89.5%	99.9%	72%	growth at 10 µM (Malme-3M): 102%; growth at 10 µM (KM12): 88.3%; growth at 10 µM (NCI-H23): 88.2%; growth at 10 µM (A498): 93.5%; growth at 10 µM (DU-145): 107%; growth at 10 µM (SW-620): 106%; growth at 10 µM (IGROV-1): 111%; growth at 10 µM (HCT-116): 85.4%; pIC50 [6]: < 5.00
CC(C)n1cc(C2=C(c3cn(C)c4ccccc34)C(=O)N(O)C2=O)c2ccccc21	77.7%	56.4%	110%	94.8%	< 5.00	92.4%	84.9%	61.5%	97.3%	-7%	28%	112%	< 5.00	101%	105%	97.6%	< 5.00	70.1%	96.9%	98%	growth at 10 µM (Malme-3M): 89%; growth at 10 µM (KM12): 87.4%; growth at 10 µM (NCI-H23): 81.8%; growth at 10 µM (A498): 99%; growth at 10 µM (DU-145): 192%; growth at 10 µM (SW-620): 101%; growth at 10 µM (IGROV-1): 96.2%; growth at 10 µM (HCT-116): 85.4%; pIC50 [6]: < 5.00
Cn1cc(C2=C(c3c[nH]c4ccccc34)C(=O)N(O)C2=O)c2ccccc21	50.2%	40.5%	89.9%	81%	< 5.00	89.5%	72.5%	51%	90.4%	19%	8%	92%	5.30	88.8%	81.5%	95.5%	< 5.00	59.5%	74.8%	40%	growth at 10 µM (Malme-3M): 68.7%; growth at 10 µM (KM12): 81.7%; growth at 10 µM (NCI-H23): 76.9%; growth at 10 µM (A498): 79.1%; growth at 10 µM (DU-145): 100%; growth at 10 µM (SW-620): 87.7%; growth at 10 µM (IGROV-1): 83%; growth at 10 µM (HCT-116): 83.3%; pIC50 [6]: < 5.00
Cn1cc(C2=C(c3cn(C)c4ccccc34)C(=O)N(O)C2=O)c2ccccc21	100%	74.2%	106%	105%	< 5.00	102%	90.3%	72.8%	112%	38%	33%	107%	< 5.00	104%	102%	107%	< 5.00	98%	99.9%	104%	growth at 10 µM (Malme-3M): 118%; growth at 10 µM (UACC-257): 88.3%; growth at 10 µM (KM12): 104%; growth at 10 µM (A498): 85.8%; growth at 10 µM (DU-145): 123%; growth at 10 µM (SW-620): 95.9%; growth at 10 µM (IGROV-1): 109%; growth at 10 µM (HCT-116): 99.9%; pIC50 [6]: < 5.00
